Ten compounds from US20240246967A1, “AXL COMPOUNDS” (ARCUS BIOSCIENCES, INC., priority 2021, published 2024) can be followed below.

This assay deals with T1, human TYRO3 (Homo sapiens, UniProt Q06418).
T1 construct: purchased Invitrogen
T1 sequence (Q06418 41-890): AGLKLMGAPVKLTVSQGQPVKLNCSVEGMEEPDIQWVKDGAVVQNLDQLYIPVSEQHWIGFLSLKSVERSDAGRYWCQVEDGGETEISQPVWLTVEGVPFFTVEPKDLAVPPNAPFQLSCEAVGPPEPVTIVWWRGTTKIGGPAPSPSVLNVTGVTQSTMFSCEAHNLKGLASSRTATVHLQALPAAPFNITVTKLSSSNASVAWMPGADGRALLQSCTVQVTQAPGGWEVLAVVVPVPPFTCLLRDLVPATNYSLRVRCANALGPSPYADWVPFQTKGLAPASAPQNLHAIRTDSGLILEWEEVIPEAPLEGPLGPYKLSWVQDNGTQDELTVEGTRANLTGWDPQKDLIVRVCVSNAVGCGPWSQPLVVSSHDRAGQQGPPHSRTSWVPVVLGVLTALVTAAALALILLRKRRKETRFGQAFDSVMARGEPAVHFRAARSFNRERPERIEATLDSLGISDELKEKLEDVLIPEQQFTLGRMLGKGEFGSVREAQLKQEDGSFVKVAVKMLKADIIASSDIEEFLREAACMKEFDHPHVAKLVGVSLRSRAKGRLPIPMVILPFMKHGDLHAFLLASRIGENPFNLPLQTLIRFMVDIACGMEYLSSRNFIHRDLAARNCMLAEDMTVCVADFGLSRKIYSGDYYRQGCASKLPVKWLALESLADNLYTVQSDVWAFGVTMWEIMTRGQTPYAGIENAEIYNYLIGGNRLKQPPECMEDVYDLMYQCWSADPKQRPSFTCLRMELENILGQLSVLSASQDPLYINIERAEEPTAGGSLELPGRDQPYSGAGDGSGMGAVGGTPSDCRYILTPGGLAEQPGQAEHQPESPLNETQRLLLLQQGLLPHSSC
Kind of assay: HTRF KinEASE-TK biochemical potency assay, TYRO3. As to conditions: 1 nM TYRO3, 700 μM ATP, 800 nM TK Substrate-biotin. Summed up: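 Final conditions: 5 nM AXL, 1 nM TYRO3 or MER, 50 mM HEPES pH 7.4, 10 mM MgCl2, 0.01% BSA, 1 mM DTT, 700 μM ATP. Reaction ran 2 h at RT after 1 h preincubation with compound; HTRF signal read at 665/620 nm.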
For the compound `C[C@@H]1CCCN1C1(C)CCc2ccc(-c3cnc4[nH]nc(-c5ccc(S(=O)(=O)C6CC6)cc5)c4c3)cc2CC1` (stereo partly drawn) [Example 1, 3-(4-(Cyclopropylsulfonyl)phenyl)-5-(7-methyl-7-((R)-2-methylpyrrolidin-1-yl)-6,7,8,9-tetrahydro-5H-benzo[7]annulen-2-yl)-1H-pyrazolo[3,4-b]pyridine], the IC50 is under 100 nM.
For `CC1(N2CCOCC2)CCc2ccc(-c3cnc4[nH]nc(-c5ccc(S(=O)(=O)C6CC6)cc5)c4c3)cc2CC1` (stereo not shown) [Example 2, 4-(2-{3-[4-(Cyclopropanesulfonyl)phenyl]-1H-pyrazolo[3,4-b]pyridin-5-yl}-7-methyl-6,7,8,9-tetrahydro-5H-benzo[7]annulen-7-yl)morpholine] the value was over 1000 nM.
Regarding `CC1(N2CCC[C@@H]2CO)CCc2ccc(-c3cnc4[nH]nc(-c5ccc(S(=O)(=O)C6CC6)cc5)c4c3)cc2CC1` (stereo partly drawn) [Example 3, [(2R)-1-(2-{3-[4-(Cyclopropanesulfonyl)phenyl]-1H-pyrazolo[3,4-b]pyridin-5-yl}-7-methyl-6,7,8,9-tetrahydro-5H-benzo[7]annulen-7-yl)pyrrolidin-2-yl]methanol], the IC50 is under 100 nM.
`C[C@@H]1CCCN1C1CCc2ccc(-c3cnc4[nH]nc(-c5ccc(C6(O)CCOC6)c(Cl)c5)c4c3)cc2CC1` (stereo partly drawn) [Example 63, 3-[2-Chloro-4-(5-{7-[(2R)-2-methylpyrrolidin-1-yl]-6,7,8,9-tetrahydro-5H-benzo[7]annulen-2-yl}-1H-pyrazolo[3,4-b]pyridin-3-yl)phenyl]oxolan-3-ol] displayed an IC50 of 100 to 1000 nM.
For `C[C@@H]1CCCN1C1CCc2ccc(-c3cnc4[nH]nc(-c5ccc(C6(O)COC6)c(Cl)c5)c4c3)cc2CC1` (stereo partly drawn) [Example 64, 3-[2-Chloro-4-(5-{7-[(2R)-2-methylpyrrolidin-1-yl]-6,7,8,9-tetrahydro-5H-benzo[7]annulen-2-yl}-1H-pyrazolo[3,4-b]pyridin-3-yl)phenyl]oxetan-3-ol] the value was 100 to 1000 nM.
For `C[C@@H]1CCCN1C1CCc2ccc(-c3cnc4[nH]nc(-c5cnc(C(C)(C)O)c(Cl)c5)c4c3)cc2CC1` (stereo partly drawn) [Example 65, 2-[3-Chloro-5-(5-{7-[(2R)-2-methylpyrrolidin-1-yl]-6,7,8,9-tetrahydro-5H-benzo[7]annulen-2-yl}-1H-pyrazolo[3,4-b]pyridin-3-yl)pyridin-2-yl]propan-2-ol], the IC50 was 100 to 1000 nM.
For `COC1CCN(C(=O)c2ccc(-c3n[nH]c4ncc(-c5ccc6c(c5)CC[C@@H](N5CCCC5)CC6)cc34)cc2Cl)CC1` [Example 66, (S)-(2-Chloro-4-(5-(7-(pyrrolidin-1-yl)-6,7,8,9-tetrahydro-5H-benzo[7]annulen-2-yl)-1H-pyrazolo[3,4-b]pyridin-3-yl)phenyl)(4-methoxypiperidin-1-yl)methanone] the value was under 100 nM; for `COC1CCN(C(=O)c2ccc(-c3n[nH]c4ncc(-c5ccc6c(c5)CCC(C)(N5CCC[C@H]5C)CC6)cc34)cc2Cl)CC1` (stereo partly drawn) [Example 67, 1-[2-Chloro-4-(5-{7-methyl-7-[(2R)-2-methylpyrrolidin-1-yl]-6,7,8,9-tetrahydro-5H-benzo[7]annulen-2-yl}-1H-pyrazolo[3,4-b]pyridin-3-yl)benzoyl]-4-methoxypiperidine], under 100 nM.
For `C[C@@H]1CCCN1C1(C)CCc2ccc(-c3cnc4[nH]nc(-c5ccc(C(N)=O)c(Cl)c5)c4c3)cc2CC1` (stereo partly drawn) [Example 68, 2-Chloro-4-(5-{7-methyl-7-[(2R)-2-methylpyrrolidin-1-yl]-6,7,8,9-tetrahydro-5H-benzo[7]annulen-2-yl}-1H-pyrazolo[3,4-b]pyridin-3-yl)benzamide] the value was under 100 nM; for `C[C@@H]1CCCN1C1(C)CCc2ccc(-c3cnc4[nH]nc(-c5ccc(C(=O)NC6CC6)cc5)c4c3)cc2CC1` (stereo partly drawn) [Example 69, N-Cyclopropyl-4-(5-{7-methyl-7-[(2R)-2-methylpyrrolidin-1-yl]-6,7,8,9-tetrahydro-5H-benzo[7]annulen-2-yl}-1H-pyrazolo[3,4-b]pyridin-3-yl)benzamide], 100 to 1000 nM.
